Experimental data as given in patent US7148353B2 (priority 2003, dated 2006).

system: not listed separately; assay: maze test, which tests anxiety; type: in vivo; details: at 10 mg/kg
Protocol: The compounds of Example 1d (also found in Example 6d), Example 22d, and Example 35d, were also tested in vivo using the maze test, which tests anxiety [Montgomery, J. Comparative and Physiological Psychology 48, 254–60 (1955); Handley et al., Naunyn-Schmiedeberg's Archives of Pharmacology 327, 1–5 (1984); Lister, Psychopharm. 92, 180–85 (1987); Pellow et al., J. Neuroscience Methods 14, 149–67 (1985); Rodgers et al., Ethology and Psychopharmacology, S. J. Cooper and C. A. Hendrie (eds), John Wiley & Sons, Ltd., 9–43 (1994); and Trullas et al., Psychopharm. 111, 323–31 (1993)]. The results of the maze test for these compounds are found in FIGS. 1a, 1b, 2a, 2b, 3a, and 3b. FIGS. 1a, 2a, and 3a are graphs of the Number of Entries in Open Arms vs. mg/kg (dose of administered compound). FIGS. 1b, 2b, and 3b plot the Percent of Time Spent in Open Arms vs. mg/kg (dose of administered compound). […] The results of the maze test are accepted by persons of skill in the art as predictive of therapeutic utility.

Question: For `Cc1ccc(-c2nc3ccc(C)cn3c2CC(=O)c2cccs2)cc1` [Example 1d, 2-(6-Methyl-2-p-tolyl-imidazo[1,2-a]pyridin-3-yl)-1-thiophen-2-yl-ethanone], which “maze test activity (Number of Entries in Open Arms, Percent of Time Spent in Open Arms)” value is on record?
Answer: statistically significant activity

Question: Which “maze test activity (Number of Entries in Open Arms, Percent of Time Spent in Open Arms)” value does the source give for `COc1ccsc1C(=O)Cc1c(-c2ccc(C)cc2)nc2ccc(C)cn12` [Example 22d, 1-(3-Methoxy-thiophen-2-yl)-2-(6-methyl-2-p-tolyl-imidazo[1,2-a]pyridin-3-yl)-ethanone] here?
Answer: statistically significant activity

molecular target: peripheral benzodiazepine receptors (Rattus norvegicus, UniProt P16257); assay: biochemical; type: binding; details: IC50 (nM) peripheral, Table 1a
Protocol: Compounds of the invention were assessed for their binding to the benzodiazepine receptor by the test of Speth et al. [Life Sci. 24, 351 (1979)] for central benzodiazepine receptors and LeFur et al. [Life Sci. 33, 449 (1983)] for peripheral receptors. The compounds were tested first at 1.0E-09, 1.0E-07 and 1.0E-05 M in single determination. […] The specific ligand binding to the receptor is defined as the difference between the total binding and the nonspecific binding determined in the presence of an excess of unlabelled ligand. In each experiment, the respective reference compound was tested concurrently with the test compounds in order to assess the assay suitability. It was tested at several concentrations (for IC50 value determination), and the data were compared with historical values. The assay was rendered valid if suitability criteria were met.

Chain of peripheral benzodiazepine receptors (P16257 whole entry): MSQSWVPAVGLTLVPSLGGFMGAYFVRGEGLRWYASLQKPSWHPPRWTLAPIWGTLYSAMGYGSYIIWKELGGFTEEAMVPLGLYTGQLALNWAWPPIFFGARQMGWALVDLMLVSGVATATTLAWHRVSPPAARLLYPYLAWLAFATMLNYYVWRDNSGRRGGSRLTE

Question: For `Cc1ccc(-c2nc3ccc(C)cn3c2CC(=O)c2ccc(Cl)cc2)cc1` [Example 3d, 1-(4-Chloro-phenyl)-2-(6-methyl-2-p-tolyl-imidazo[1,2-a]pyridin-3-yl)-ethanone], which IC50 is on record?
Answer: 594 nM

Question: For `Cc1ccc(-c2nc3ccc(C)cn3c2CC(=O)c2ccccc2)cc1` [Example 4d, 2-(6-Methyl-2-p-tolyl-imidazo[1,2-a]pyridin-3-yl)-1-phenyl-ethanone], which IC50 is on record?
Answer: 386 nM

same assay, conditions: Table 1a; read-out: IC50 (nM) peripheral

Question: With `Cc1ccc(-c2nc3ccc(C)cn3c2CC(=O)C2CCCC2)cc1` as the compound, how does the IC50 read?
Answer: 310 nM

Question: For `Cc1ccc(-c2nc3ccc(C)cn3c2CC(=O)C(C)C)cc1`, which IC50 is on record?
Answer: 820 nM

Question: With `Cc1ccc(-c2nc3ccc(C)cn3c2CC(=O)C2CC2)cc1` as the compound, how does the IC50 read?
Answer: 560 nM

Question: Which IC50 does the source give for `Cc1ccc(-c2nc3ccc(C)cn3c2CC(=O)c2ccsc2)cc1` here?
Answer: 240 nM

Question: Which IC50 does the source give for `Cc1ccc(-c2nc3ccc(C)cn3c2CC(=O)c2nccs2)cc1` here?
Answer: 1600 nM

Question: Which IC50 does the source give for `Cc1ccc(-c2nc3ccc(C)cn3c2CC(=O)c2ccco2)cc1` here?
Answer: 1600 nM

Question: For `Cc1ccc(-c2nc3ccc(C)cn3c2CC(=O)c2cncnc2)cc1`, which IC50 is on record?
Answer: 3400 nM

Question: Which IC50 does the source give for `Cc1ccc(-c2nc3ccc(C)cn3c2CC(=O)c2sc(C)nc2C)cc1` here?
Answer: 2000 nM

Question: With `Cc1ccc(-c2nc3ccc(C)cn3c2CC(=O)c2ccoc2)cc1` as the compound, how does the IC50 read?
Answer: 400 nM

Question: Which IC50 does the source give for `Cc1ccc(-c2nc3ccc(C)cn3c2CC(=O)c2c(C)nn(C)c2C)cc1` here?
Answer: > 10000 nM

Question: For `Cc1ccc(-c2nc3ccc(C)cn3c2CC(=O)c2nn(-c3ccccc3)nc2C)cc1`, which IC50 is on record?
Answer: 7600 nM

Question: With `Cc1ccc(-c2nc3ccc(C)cn3c2CC(=O)c2c(C)nn(-c3ccccc3)c2C)cc1` as the compound, how does the IC50 read?
Answer: > 10000 nM

Question: With `Cc1ccc(-c2nc3ccc(C)cn3c2CC(=O)c2c(C)nc3cc(C)ccn23)cc1` as the compound, how does the IC50 read?
Answer: 210 nM

Question: For `Cc1ccc(-c2nc3ccc(C)cn3c2CC(=O)c2cc3ccccc3s2)cc1`, which IC50 is on record?
Answer: 220 nM

Question: Which IC50 does the source give for `Cc1ccc(-c2nc3ccc(C)cn3c2CC(=O)c2cc3c(C)nn(C)c3s2)cc1` here?
Answer: 2100 nM

Question: For `Cc1ccc(-c2nc3ccc(C)cn3c2CC(=O)Cc2cccs2)cc1`, which IC50 is on record?
Answer: 59 nM

Question: With `Cc1ccc(-c2nc3ccc(C)cn3c2CC(=O)C2COc3ccccc3O2)cc1` (stereo not shown) as the compound, how does the IC50 read?
Answer: 32 nM

Question: For `Cc1ccc(-c2nc3ccc(C)cn3c2CC(=O)c2snnc2C)cc1`, which IC50 is on record?
Answer: 320 nM

Question: For `Cc1ccc(-c2nc3ccc(C)cn3c2CC(=O)c2sccc2Cl)cc1`, which IC50 is on record?
Answer: 840 nM

Question: With `Cc1ccc(-c2nc3ccc(C)cn3c2CC(=O)c2cncn2C)cc1` as the compound, how does the IC50 read?
Answer: 3100 nM

Question: With `Cc1ccc(-c2nc3ccc(C)cn3c2CC(=O)c2c(C)noc2C)cc1` as the compound, how does the IC50 read?
Answer: 1200 nM

Question: For `Cc1ccc(-c2nc3ccc(C)cn3c2CC(=O)c2scc(S(C)(=O)=O)c2Cl)cc1`, which IC50 is on record?
Answer: 730 nM

Question: With `Cc1ccc(-c2nc3ccc(C)cn3c2CC(=O)c2cc(C)nn2C)cc1` as the compound, how does the IC50 read?
Answer: 810 nM

Question: For `Cc1ccc(-c2nc3ccc(C)cn3c2CC(=O)c2cc(C)on2)cc1`, which IC50 is on record?
Answer: 560 nM

Question: Which IC50 does the source give for `Cc1ccc(-c2nc3ccc(C)cn3c2CC(=O)c2cn(C)cn2)cc1` here?
Answer: > 10000 nM

Question: With `Cc1ccc(-c2nc3ccc(C)cn3c2CC(=O)c2csc(-c3cccs3)n2)cc1` as the compound, how does the IC50 read?
Answer: > 10000 nM

Question: With `Cc1ccc(-c2nc3ccc(C)cn3c2CC(=O)c2sccc2C)cc1` as the compound, how does the IC50 read?
Answer: 230 nM

Question: With `Cc1ccc(-c2nc3ccc(C)cn3c2CC(=O)c2nsc(Cl)c2Cl)cc1` as the compound, how does the IC50 read?
Answer: 1700 nM

Question: Which IC50 does the source give for `Cc1ccc(-c2nc3ccc(C)cn3c2CC(=O)c2ccc(C)s2)cc1` here?
Answer: 1800 nM

Question: Which IC50 does the source give for `Cc1ccc(-c2nc3ccc(C)cn3c2CC(=O)c2cc(C)n(C)n2)cc1` here?
Answer: 1300 nM

Question: Which IC50 does the source give for `Cc1ccc(-c2nc3ccc(C)cn3c2CC(=O)c2nccn2C)cc1` here?
Answer: > 10000 nM

Question: With `CCn1nc(C)c(Br)c1C(=O)Cc1c(-c2ccc(C)cc2)nc2ccc(C)cn12` as the compound, how does the IC50 read?
Answer: 2100 nM

Question: With `Cc1ccc(-c2nc3ccc(C)cn3c2CC(=O)c2nnn(C)c2C)cc1` as the compound, how does the IC50 read?
Answer: > 10000 nM

Question: For `CSc1ccc(C(=O)Cc2c(-c3ccc(C)cc3)nc3ccc(C)cn23)s1`, which IC50 is on record?
Answer: 6000 nM

Question: With `Cc1ccc(-c2nc3ccc(C)cn3c2CC(=O)c2cn(-c3cccc(C)n3)cn2)cc1` as the compound, how does the IC50 read?
Answer: 6600 nM

Question: For `Cc1ccc(-c2nc3ccc(C)cn3c2CC(=O)CCc2ccccc2)cc1`, which IC50 is on record?
Answer: 290 nM

Question: Which IC50 does the source give for `CC(=O)Cc1c(-c2ccc(C)cc2)nc2ccc(C)cn12` [Example 2d, 1-(6-Methyl-2-p-tolyl-imidazo[1,2-a]pyridin-3-yl)-propan-2-one] here?
Answer: 231 nM

Question: Which IC50 does the source give for `CCCCCC(=O)Cc1c(-c2ccc(C)cc2)nc2ccc(C)cn12` [Example 5d, 1-(6-Methyl-2-p-tolyl-imidazo[1,2-a]pyridin-3-yl)-heptan-2-one] here?
Answer: 269 nM

Question: With `Cc1ccc(-c2nc3ccc(C)cn3c2CC(=O)c2cccs2)cc1` [drawing 97] as the compound, how does the IC50 read?
Answer: 153 nM

Question: Which IC50 does the source give for `COc1ccsc1C(=O)Cc1c(-c2ccc(C)cc2)nc2ccc(C)cn12` [drawing 131] here?
Answer: 180 nM

Question: With `Cc1ccc(-c2nc3ccc(C)cn3c2CC(=O)CC(C)C)cc1` [—CH2CH(CH3)2] as the compound, how does the IC50 read?
Answer: 820 nM

same assay, conditions: Table 1b; read-out: IC50 (nM) peripheral

Question: Which IC50 does the source give for `Cc1cc(Cl)cn2c(CC(=O)c3ccoc3)c(-c3ccc(Cl)cc3)nc12` here?
Answer: 350 nM

Question: For `Cc1cc(Cl)cn2c(CC(=O)c3cccs3)c(-c3ccc(Cl)cc3)nc12`, which IC50 is on record?
Answer: 590 nM

Question: With `O=C(Cc1c(-c2ccc(Cl)cc2)nc2ccccn12)c1cccs1` as the compound, how does the IC50 read?
Answer: 2600 nM

Question: With `O=C(Cc1c(-c2ccc(Cl)cc2)nc2ccc(Cl)cn12)c1cccs1` as the compound, how does the IC50 read?
Answer: 290 nM

Question: With `COc1ccc(-c2nc3ccc(C)cn3c2CC(=O)c2cc(C)nn2C)cc1` as the compound, how does the IC50 read?
Answer: 2300 nM

Question: For `COc1ccc(-c2nc3ccc(C)cn3c2CC(=O)c2cccs2)cc1`, which IC50 is on record?
Answer: 2400 nM

same assay, conditions: Table 2; read-out: IC50 (nM) peripheral

Question: With `Cc1ccc(-c2nc3ccc(C)cn3c2C2CCCNC2=O)cc1` (stereo not shown) as the compound, how does the IC50 read?
Answer: > 10000 nM

Question: With `Cc1ccc(-c2nc3ccc(C)cn3c2C2CC=CCN(C)C2=O)cc1` (stereo not shown) as the compound, how does the IC50 read?
Answer: 210 nM

Question: With `Cc1ccc(-c2nc3ccc(C)cn3c2C2CCCN(C)C2=O)cc1` (stereo not shown) [drawing 151] as the compound, how does the IC50 read?
Answer: 1240 nM

Question: For `Cc1ccc(-c2nc3ccc(C)cn3c2C2CCCN(C)C2=O)cc1` (stereo not shown) [drawing 155], which IC50 is on record?
Answer: 1500 nM

Question: For `Cc1ccc(-c2nc3ccc(C)cn3c2C2CCCN(C)C2=O)cc1` (stereo not shown) [drawing 156], which IC50 is on record?
Answer: > 10000 nM

molecular target: central benzodiazepine receptors; assay: binding to central benzodiazepine receptors, displacement of 3H-flunitrazepam (test of Speth et al.); details: Table 1a

Question: For `CC(=O)Cc1c(-c2ccc(C)cc2)nc2ccc(C)cn12` [Example 2d, 1-(6-Methyl-2-p-tolyl-imidazo[1,2-a]pyridin-3-yl)-propan-2-one], which IC50 is on record?
Answer: 439 nM

Question: With `Cc1ccc(-c2nc3ccc(C)cn3c2CC(=O)c2ccc(Cl)cc2)cc1` [Example 3d, 1-(4-Chloro-phenyl)-2-(6-methyl-2-p-tolyl-imidazo[1,2-a]pyridin-3-yl)-ethanone] as the compound, how does the IC50 read?
Answer: 4060 nM

Question: For `Cc1ccc(-c2nc3ccc(C)cn3c2CC(=O)c2ccccc2)cc1` [Example 4d, 2-(6-Methyl-2-p-tolyl-imidazo[1,2-a]pyridin-3-yl)-1-phenyl-ethanone], which IC50 is on record?
Answer: 1750 nM

Question: With `CCCCCC(=O)Cc1c(-c2ccc(C)cc2)nc2ccc(C)cn12` [Example 5d, 1-(6-Methyl-2-p-tolyl-imidazo[1,2-a]pyridin-3-yl)-heptan-2-one] as the compound, how does the IC50 read?
Answer: 420 nM

Question: Which IC50 does the source give for `Cc1ccc(-c2nc3ccc(C)cn3c2CC(=O)CC(C)C)cc1` [—CH2CH(CH3)2] here?
Answer: > 10000 nM
